Experimental data taken from the NIST ThermoML archive (doi:10.1016/j.jct.2016.03.030).

Experiment: xn = mol fraction of the nth substance listed
Details: 100 kPa, Liquid; for viscosity: Falling or rolling sphere viscometry; for mass density: Vibrating tube method

CCCCC[N+]1(C)CCOCC1.[Br-] [4-methyl-4-pentylmorpholinium bromide] + O
Details | mass density [kg/m3] | viscosity [mPa·s]
298.15 K, x1 = 0.0316 | 1072.8 | 1.957
298.15 K, x1 = 0.0695 | 1127.6 | 4.131
298.15 K, x1 = 0.0965 | 1153.8 | 6.746
298.15 K, x1 = 0.1196 | 1170 | 9.795
298.15 K, x1 = 0.1522 | 1187.7 | 16.25
298.15 K, x1 = 0.2054 | 1208.2 | 36.11
298.15 K, x1 = 0.219 | 1212.2 | 44.38
298.15 K, x1 = 0.2438 | 1218.9 | 64.59
298.15 K, x1 = 0.2754 | 1226 | 103.9
303.15 K, x1 = 0.0316 | 1070.5 | 1.7
303.15 K, x1 = 0.0695 | 1124.5 | 3.505
303.15 K, x1 = 0.0965 | 1150.6 | 5.63
303.15 K, x1 = 0.1196 | 1166.6 | 8.076
303.15 K, x1 = 0.1522 | 1184.4 | 13.14
303.15 K, x1 = 0.2054 | 1204.9 | 28.07
303.15 K, x1 = 0.219 | 1208.8 | 34.04
303.15 K, x1 = 0.2438 | 1215.6 | 48.66
303.15 K, x1 = 0.2754 | 1222.7 | 76.46
308.15 K, x1 = 0.0316 | 1067.9 | 1.484
308.15 K, x1 = 0.0695 | 1121.3 | 2.997
308.15 K, x1 = 0.0965 | 1147.2 | 4.74
308.15 K, x1 = 0.1196 | 1163.3 | 6.709
308.15 K, x1 = 0.1522 | 1181 | 10.79
308.15 K, x1 = 0.2054 | 1201.5 | 22.24
308.15 K, x1 = 0.219 | 1205.5 | 26.62
308.15 K, x1 = 0.2438 | 1212.2 | 37.45
308.15 K, x1 = 0.2754 | 1219.4 | 57.57
313.15 K, x1 = 0.0316 | 1065.3 | 1.309
313.15 K, x1 = 0.0695 | 1118.1 | 2.586
313.15 K, x1 = 0.0965 | 1143.9 | 4.035
313.15 K, x1 = 0.1196 | 1159.8 | 5.642
313.15 K, x1 = 0.1522 | 1177.5 | 8.994
313.15 K, x1 = 0.2054 | 1198.1 | 17.82
313.15 K, x1 = 0.219 | 1202.1 | 21.2
313.15 K, x1 = 0.2438 | 1208.9 | 29.17
313.15 K, x1 = 0.2754 | 1216.1 | 44.03
318.15 K, x1 = 0.0316 | 1062.6 | 1.159
318.15 K, x1 = 0.0695 | 1114.9 | 2.252
318.15 K, x1 = 0.0965 | 1140.5 | 3.465
318.15 K, x1 = 0.1196 | 1156.4 | 4.796
318.15 K, x1 = 0.1522 | 1174.1 | 7.569
318.15 K, x1 = 0.2054 | 1194.7 | 14.56
318.15 K, x1 = 0.219 | 1198.7 | 17.13
318.15 K, x1 = 0.2438 | 1205.5 | 23.22
318.15 K, x1 = 0.2754 | 1212.7 | 34.22
323.15 K, x1 = 0.0316 | 1059.7 | 1.023
323.15 K, x1 = 0.0695 | 1111.5 | 1.95
323.15 K, x1 = 0.0965 | 1137 | 2.963
323.15 K, x1 = 0.1196 | 1152.9 | 4.065
323.15 K, x1 = 0.1522 | 1170.6 | 6.349
323.15 K, x1 = 0.2054 | 1191.3 | 11.9
323.15 K, x1 = 0.219 | 1195.4 | 13.89
323.15 K, x1 = 0.2438 | 1202.2 | 18.52
323.15 K, x1 = 0.2754 | 1209.4 | 26.85
328.15 K, x1 = 0.0316 | 1056.6 | 0.908
328.15 K, x1 = 0.0695 | 1108.1 | 1.703
328.15 K, x1 = 0.0965 | 1133.5 | 2.557
328.15 K, x1 = 0.1196 | 1149.4 | 3.475
328.15 K, x1 = 0.1522 | 1167.1 | 5.382
328.15 K, x1 = 0.2054 | 1187.9 | 9.86
328.15 K, x1 = 0.219 | 1191.9 | 11.44
328.15 K, x1 = 0.2438 | 1198.8 | 15.02
328.15 K, x1 = 0.2754 | 1206.1 | 21.35
333.15 K, x1 = 0.0316 | 1053.5 | 0.817
333.15 K, x1 = 0.0695 | 1104.7 | 1.504
333.15 K, x1 = 0.0965 | 1130 | 2.234
333.15 K, x1 = 0.1196 | 1145.9 | 3.003
333.15 K, x1 = 0.1522 | 1163.6 | 4.616
333.15 K, x1 = 0.2054 | 1184.4 | 8.297
333.15 K, x1 = 0.219 | 1188.5 | 9.561
333.15 K, x1 = 0.2438 | 1195.4 | 12.38
333.15 K, x1 = 0.2754 | 1202.7 | 17.33
338.15 K, x1 = 0.0316 | 1050.5 | 0.74
338.15 K, x1 = 0.0695 | 1101.2 | 1.374
338.15 K, x1 = 0.0965 | 1126.5 | 1.965
338.15 K, x1 = 0.1196 | 1142.3 | 2.724
338.15 K, x1 = 0.1522 | 1160.1 | 3.961
338.15 K, x1 = 0.2054 | 1180.9 | 7.055
338.15 K, x1 = 0.219 | 1185.1 | 8.079
338.15 K, x1 = 0.2438 | 1192 | 10.39
338.15 K, x1 = 0.2754 | 1199.3 | 14.54
343.15 K, x1 = 0.0316 | 1047.2 | 0.677
343.15 K, x1 = 0.0695 | 1097.8 | 1.288
343.15 K, x1 = 0.0965 | 1122.9 | 1.733
343.15 K, x1 = 0.1196 | 1138.7 | 2.554
343.15 K, x1 = 0.1522 | 1156.5 | 3.412
343.15 K, x1 = 0.2054 | 1177.5 | 6.064
343.15 K, x1 = 0.219 | 1181.6 | 7.061
343.15 K, x1 = 0.2438 | 1188.5 | 8.615
343.15 K, x1 = 0.2754 | 1196 | 12.93
